{"source": "patent US7294687B2", "about": "“Parenteral formulations of a peptide for the treatment of systemic lupus erythematosus” (TEVA Pharmaceutical Industries, Ltd., priority 2003, dated 2007)", "system": "IFN-γ secretion by LN cells", "test": "IFN-γ secretion by cultured LN cells of immunized and treated mice, ELISA", "assay_type": "in vivo, BALB/c mice", "experimental": "A group of 20 mice were immunized with 50 μg/mouse of Compound 1 RS. The immunized mice were allocated to five treatment groups as follows: placebo, 25, 50, 100 and 200 μg/mouse of Compound 1 DP (subcutaneous administration). Ten days post immunization and treatment, LN was extracted and single cell suspension was prepared. The in-vitro secretion of IFN-γ and TGF-β by the cultured cells in response to activation with several concentrations of Compound 1 RS was then measured. [table] [table] […] Mice were sacrificed by cervical dislocation. LN were extracted from the hind legs and were transferred to a sterile petri dish containing about 5 mL RPMI. The cells were extracted by gentle squeezing of the tissue against a 200 micrometer mesh stainless steel net. The cells were collected and centrifuged at 300 G for 10 minutes at RT. Single cell suspensions were prepared from pooled LN of each experimental group. […] Secretion of IFN-γ and TGF-β, as indication of cellular response, were determined by ELISA of culture media (48 hrs for IFN-γ and 72 hrs for TGF-β). [table]", "data": [{"substance": "H-GYYWSWIRQPPGKGEEWIG-OH [Compound 1]", "values": [{"measurement": "Final cytokine (IFN-γ secretion)", "setting": "Compound 1 DP 25 μg/M s.c., 5 million cells/well, activation Compound 1 RS 3.125 μg/ml", "value": "BQL"}, {"measurement": "Final cytokine (IFN-γ secretion)", "setting": "Compound 1 DP 25 μg/M s.c., 5 million cells/well, activation Compound 1 RS 6.25 μg/ml", "value": "BQL"}, {"measurement": "Final cytokine (IFN-γ secretion)", "setting": "Compound 1 DP 25 μg/M s.c., 5 million cells/well, activation Compound 1 RS 12.5 μg/ml", "value": 41.9, "unit": "pg/mL"}, {"measurement": "Final cytokine (IFN-γ secretion)", "setting": "Compound 1 DP 25 μg/M s.c., 5 million cells/well, activation Compound 1 RS 50 μg/ml", "value": 104.2, "unit": "pg/mL"}, {"measurement": "Final cytokine (IFN-γ secretion)", "setting": "Compound 1 DP 25 μg/M s.c., 5 million cells/well, activation Compound 1 RS 100 μg/ml", "value": 185.2, "unit": "pg/mL"}, {"measurement": "Final cytokine (IFN-γ secretion)", "setting": "Compound 1 DP 25 μg/M s.c., 5 million cells/well, activation Compound 1 RS 25 μ/ml", "value": 70.0, "unit": "pg/mL"}, {"measurement": "Final cytokine (IFN-γ secretion)", "setting": "Compound 1 DP 25 μg/M s.c., 5 million cells/well, activation Con A", "value": 2995.3, "unit": "pg/mL"}, {"measurement": "Final cytokine (IFN-γ secretion)", "setting": "Compound 1 DP 50 μg/M s.c., 2.5 million cells/well, activation Compound 1 RS 3.125 μg/ml", "value": 54.1, "unit": "pg/mL"}, {"measurement": "Final cytokine (IFN-γ secretion)", "setting": "Compound 1 DP 50 μg/M s.c., 2.5 million cells/well, activation Compound 1 RS 6.25 μg/ml", "value": 81.8, "unit": "pg/mL"}, {"measurement": "Final cytokine (IFN-γ secretion)", "setting": "Compound 1 DP 50 μg/M s.c., 2.5 million cells/well, activation Compound 1 RS 12.5 μg/ml", "value": 123.1, "unit": "pg/mL"}, {"measurement": "Final cytokine (IFN-γ secretion)", "setting": "Compound 1 DP 50 μg/M s.c., 2.5 million cells/well, activation Compound 1 RS 50 μg/ml", "value": 292.5, "unit": "pg/mL"}, {"measurement": "Final cytokine (IFN-γ secretion)", "setting": "Compound 1 DP 50 μg/M s.c., 2.5 million cells/well, activation Compound 1 RS 100 μg/ml", "value": 531.8, "unit": "pg/mL"}, {"measurement": "Final cytokine (IFN-γ secretion)", "setting": "Compound 1 DP 50 μg/M s.c., 2.5 million cells/well, activation Compound 1 RS 25 μ/ml", "value": 215.1, "unit": "pg/mL"}, {"measurement": "Final cytokine (IFN-γ secretion)", "setting": "Compound 1 DP 50 μg/M s.c., 2.5 million cells/well, activation Con A", "value": 356.2, "unit": "pg/mL"}, {"measurement": "Final cytokine (IFN-γ secretion)", "setting": "Compound 1 DP 50 μg/M s.c., 5 million cells/well, activation Compound 1 RS 3.125 μg/ml", "value": 76.2, "unit": "pg/mL"}, {"measurement": "Final cytokine (IFN-γ secretion)", "setting": "Compound 1 DP 50 μg/M s.c., 5 million cells/well, activation Compound 1 RS 6.25 μg/ml", "value": 109.2, "unit": "pg/mL"}, {"measurement": "Final cytokine (IFN-γ secretion)", "setting": "Compound 1 DP 50 μg/M s.c., 5 million cells/well, activation Compound 1 RS 12.5 μg/ml", "value": 179.5, "unit": "pg/mL"}, {"measurement": "Final cytokine (IFN-γ secretion)", "setting": "Compound 1 DP 50 μg/M s.c., 5 million cells/well, activation Compound 1 RS 50 μg/ml", "value": 373.4, "unit": "pg/mL"}, {"measurement": "Final cytokine (IFN-γ secretion)", "setting": "Compound 1 DP 50 μg/M s.c., 5 million cells/well, activation Compound 1 RS 100 μg/ml", "value": 547.0, "unit": "pg/mL"}, {"measurement": "Final cytokine (IFN-γ secretion)", "setting": "Compound 1 DP 50 μg/M s.c., 5 million cells/well, activation Compound 1 RS 25 μ/ml", "value": 277.9, "unit": "pg/mL"}, {"measurement": "Final cytokine (IFN-γ secretion)", "setting": "Compound 1 DP 50 μg/M s.c., 5 million cells/well, activation Con A", "value": 4837.0, "unit": "pg/mL"}, {"measurement": "Final cytokine (IFN-γ secretion)", "setting": "Compound 1 DP 100 μg/M s.c., 2.5 million cells/well, activation Compound 1 RS 3.125 μg/ml", "value": 64.5, "unit": "pg/mL"}, {"measurement": "Final cytokine (IFN-γ secretion)", "setting": "Compound 1 DP 100 μg/M s.c., 2.5 million cells/well, activation Compound 1 RS 6.25 μg/ml", "value": 116.1, "unit": "pg/mL"}, {"measurement": "Final cytokine (IFN-γ secretion)", "setting": "Compound 1 DP 100 μg/M s.c., 2.5 million cells/well, activation Compound 1 RS 12.5 μg/ml", "value": 180.9, "unit": "pg/mL"}, {"measurement": "Final cytokine (IFN-γ secretion)", "setting": "Compound 1 DP 100 μg/M s.c., 2.5 million cells/well, activation Compound 1 RS 50 μg/ml", "value": 518.3, "unit": "pg/mL"}, {"measurement": "Final cytokine (IFN-γ secretion)", "setting": "Compound 1 DP 100 μg/M s.c., 2.5 million cells/well, activation Compound 1 RS 100 μg/ml", "value": 582.7, "unit": "pg/mL"}, {"measurement": "Final cytokine (IFN-γ secretion)", "setting": "Compound 1 DP 100 μg/M s.c., 2.5 million cells/well, activation Compound 1 RS 25 μ/ml", "value": 262.8, "unit": "pg/mL"}, {"measurement": "Final cytokine (IFN-γ secretion)", "setting": "Compound 1 DP 100 μg/M s.c., 2.5 million cells/well, activation Con A", "value": 337.4, "unit": "pg/mL"}, {"measurement": "Final cytokine (IFN-γ secretion)", "setting": "Compound 1 DP 100 μg/M s.c., 5 million cells/well, activation Compound 1 RS 3.125 μg/ml", "value": 90.8, "unit": "pg/mL"}, {"measurement": "Final cytokine (IFN-γ secretion)", "setting": "Compound 1 DP 100 μg/M s.c., 5 million cells/well, activation Compound 1 RS 6.25 μg/ml", "value": 157.8, "unit": "pg/mL"}, {"measurement": "Final cytokine (IFN-γ secretion)", "setting": "Compound 1 DP 100 μg/M s.c., 5 million cells/well, activation Compound 1 RS 12.5 μg/ml", "value": 257.1, "unit": "pg/mL"}, {"measurement": "Final cytokine (IFN-γ secretion)", "setting": "Compound 1 DP 100 μg/M s.c., 5 million cells/well, activation Compound 1 RS 50 μg/ml", "value": 739.7, "unit": "pg/mL"}, {"measurement": "Final cytokine (IFN-γ secretion)", "setting": "Compound 1 DP 100 μg/M s.c., 5 million cells/well, activation Compound 1 RS 100 μg/ml", "value": 995.5, "unit": "pg/mL"}, {"measurement": "Final cytokine (IFN-γ secretion)", "setting": "Compound 1 DP 100 μg/M s.c., 5 million cells/well, activation Compound 1 RS 25 μ/ml", "value": 421.7, "unit": "pg/mL"}, {"measurement": "Final cytokine (IFN-γ secretion)", "setting": "Compound 1 DP 100 μg/M s.c., 5 million cells/well, activation Con A", "value": 10126.8, "unit": "pg/mL"}, {"measurement": "Final cytokine (IFN-γ secretion)", "setting": "Compound 1 DP 200 μg/M s.c., 2.5 million cells/well, activation Compound 1 RS 3.125 μg/ml", "value": 103.9, "unit": "pg/mL"}, {"measurement": "Final cytokine (IFN-γ secretion)", "setting": "Compound 1 DP 200 μg/M s.c., 2.5 million cells/well, activation Compound 1 RS 6.25 μg/ml", "value": 126.1, "unit": "pg/mL"}, {"measurement": "Final cytokine (IFN-γ secretion)", "setting": "Compound 1 DP 200 μg/M s.c., 2.5 million cells/well, activation Compound 1 RS 12.5 μg/ml", "value": 129.0, "unit": "pg/mL"}, {"measurement": "Final cytokine (IFN-γ secretion)", "setting": "Compound 1 DP 200 μg/M s.c., 2.5 million cells/well, activation Compound 1 RS 50 μg/ml", "value": 378.1, "unit": "pg/mL"}, {"measurement": "Final cytokine (IFN-γ secretion)", "setting": "Compound 1 DP 200 μg/M s.c., 2.5 million cells/well, activation Compound 1 RS 100 μg/ml", "value": 524.1, "unit": "pg/mL"}, {"measurement": "Final cytokine (IFN-γ secretion)", "setting": "Compound 1 DP 200 μg/M s.c., 2.5 million cells/well, activation Compound 1 RS 25 μ/ml", "value": 240.3, "unit": "pg/mL"}, {"measurement": "Final cytokine (IFN-γ secretion)", "setting": "Compound 1 DP 200 μg/M s.c., 2.5 million cells/well, activation Con A", "value": "BQL"}, {"measurement": "Final cytokine (IFN-γ secretion)", "setting": "Compound 1 DP 200 μg/M s.c., 5 million cells/well, activation Compound 1 RS 3.125 μg/ml", "value": 204.4, "unit": "pg/mL"}, {"measurement": "Final cytokine (IFN-γ secretion)", "setting": "Compound 1 DP 200 μg/M s.c., 5 million cells/well, activation Compound 1 RS 6.25 μg/ml", "value": 244.1, "unit": "pg/mL"}, {"measurement": "Final cytokine (IFN-γ secretion)", "setting": "Compound 1 DP 200 μg/M s.c., 5 million cells/well, activation Compound 1 RS 12.5 μg/ml", "value": 466.1, "unit": "pg/mL"}, {"measurement": "Final cytokine (IFN-γ secretion)", "setting": "Compound 1 DP 200 μg/M s.c., 5 million cells/well, activation Compound 1 RS 50 μg/ml", "value": 922.5, "unit": "pg/mL"}, {"measurement": "Final cytokine (IFN-γ secretion)", "setting": "Compound 1 DP 200 μg/M s.c., 5 million cells/well, activation Compound 1 RS 100 μg/ml", "value": 1006.2, "unit": "pg/mL"}, {"measurement": "Final cytokine (IFN-γ secretion)", "setting": "Compound 1 DP 200 μg/M s.c., 5 million cells/well, activation Compound 1 RS 25 μ/ml", "value": 660.5, "unit": "pg/mL"}, {"measurement": "Final cytokine (IFN-γ secretion)", "setting": "Compound 1 DP 200 μg/M s.c., 5 million cells/well, activation Con A", "value": 7722.8, "unit": "pg/mL"}, {"measurement": "inhibition of IFN-γ secretion", "setting": "all the doses used for treatment (25-200 μg/mouse)", "value": "Significant inhibition"}]}]}
